This is an account of results in patent publication US9187468B2, “Topical ocular analgesic agents” (Novartis AG, priority 2013, dated 2015).

Data set [1] has as its system nylon fiber ocular surface touching-induced blinking in rats. Briefly: Cochet-Bonnet esthesiometry test (anesthetic activity). The format is in vivo. The settings on record: rat, topical ocular; for anesthesia in Cochet-Bonnet esthesiometry test: concentration range that afforded efficacious analgesia in the formalin blink test. Here is the method: Cochet-Bonnet Esthesiometry Test
For the Cochet-Bonnet esthesiometry test that measures anesthetic activity, whiskers were trimmed from test animals or vehicle animals. OD eye of animal was dosed with 5 μL of test compound or vehicle. The animal was restrained in a clear plastic cone (DecapiCone®, Alcon Laboratories, Fort Worth, Tex.) which was trimmed as necessary to allow access to the OD eye. Five minutes after application of test compound, a Cochet-Bonnet esthesiometer, with a nylon monofilament diameter of 0.12 mm and length of 40 mm (0.8 g/mm^2), was applied perpendicularly to the central cornea of the OD eye 10 times. This test was performed three times on each animal within 2 minutes. Data were expressed as the mean number of blinks elicited from 10 stimuli.

The test system of data set [2] is formalin-induced blinking in rats. Briefly: Formalin blink test (topical ocular analgesia). The format is in vivo. The settings on record: rat. As to the method: Formalin was prepared at 0.1% final in 0.9% saline from a stock of 10% neutral buffered formalin (Sigma-Aldrich, St. Louis, Mo.). […] The structure of Compound A is.
All compounds were formulated in a 10% hydroxypropyl-β-cyclodextrin (HPβCD) 1×PBS vehicle. Compounds were prepared as 1% stock solutions in absolute ethanol. An appropriate amount of the stock solution was transferred to a glass vial from which the solvent was evaporated, then the compound was re-suspended in appropriate volumes of vehicle and ball-milled overnight at 4° C. All compounds were tested at 0.01%, 0.1%, 0.3%, and 1% w/v, unless otherwise noted. Alcaine® (Alcon Laboratories, Fort Worth, Tex.) was used as a reference compound.
Rats were dosed with 5 μL, of formalin vehicle (0.9% sterile saline) in OS eye. After a 5-second acclimation period, blinks were counted for one minute. Test compound or vehicle was dosed (5 μL) on OD eye. At 5 minutes after test compound treatment (unless otherwise noted), 0.1% formalin was dosed in the OD eye. Blinks were counted in the same manner as the OS eye.
The efficacy data for these compounds are plotted in FIGS. 1, 3, 4, and 5, with % inhibition of formalin-induced blink rate indicated above the bar for each tested concentration.

Data set [3] concerns rat spinal ligation model of neuropathic pain. As to conditions: orally dosed at 10 mg/kg, comparators at 3-10 times higher doses; cited from earlier work.

The structures appear in SMILES notation. Some results are limits rather than exact numbers.

On to `CC(=O)Nc1cccc(Nc2ncnc(N3CCC(OCc4ccc(OC(F)(F)F)cc4)CC3)n2)c1C` [Compound 1], for which the “anesthesia in Cochet-Bonnet esthesiometry test” value in data set [1] is listed as “did not elicit observable anesthesia”. The “anesthetic effect (touch-induced blinking) compared to vehicle” value in data set [1] (drug concentrations up to 0.3% w/v (0.05-0.3%)) is listed as “did not elicit a statistically significant anesthetic effect”. For the same compound, in data set [2] (FIG. 1 vs FIGS. 3 and 4), the “maximum efficacy as topical ocular analgesic compared to Compounds A and B” value is reported as “more efficacious”; the “potency as topical ocular analgesic compared to Compounds A and B” value is recorded as “significantly more potent”. Further, the “% reduction of formalin-induced blink rate vs vehicle” value in data set [2] (drug concentrations ≧0.05% w/v (tested 0.01%-0.3% w/v)) is reported as > 50%.
Take `CCCCCN1C(=O)C2(COc3cc4c(cc32)OCO4)c2ccccc21` (stereo not drawn) [Compound A, 1′-pentyl-6H-spiro[[1,3]dioxolo[4,5-f]benzofuran-7,3′-indolin]-2′-one]: in data set [2] (0.1% w/v dose), the “% reduction of formalin-induced blink rate” value amounted to 27%.
As to `NC(=O)c1nc(-c2cccc(-c3ccccc3OC(F)(F)F)c2)cs1` [Compound B, 4-(2′-(trifluoromethoxy)-[1,1′-biphenyl]-3-yl)thiazole-2-carboxamide], the “therapeutic efficacy vs mexiletene, lamotrigene and carbamazepine” value in data set [3] is listed as “significantly more therapeutically efficacious”. Also, the “% reduction of formalin-induced blink rate” value in data set [2] (0.01% w/v dose) is on record as “no effect”; in data set [2] (0.1% w/v dose) it was “no effect”; in data set [2] (0.3% w/v dose) it was ~40%; in data set [2] (1% w/v dose), ~40%.
For the compound `Fc1cccc(Cn2ccc3c(OC4CCN(Cc5cscn5)CC4)ncnc32)c1F` [Compound C], the “anesthetic effect (touch-induced blinking)” value in data set [1] (0.1% and 0.2% doses) is reported as “elicited significant anesthesia”. In data set [1], the “anesthesia in Cochet-Bonnet esthesiometry test” value is reported as “profound anesthesia”. Besides, the “dose dependence of analgesic efficacy” value in data set [2] (0.01-0.2% w/v) is on record as “dose-related increase in efficacy”. In addition, the “maximum efficacy (% inhibition of formalin-induced blink rate)” value in data set [2] (top tested dose of 0.01-0.2% w/v range) was 61%.
